# Reference: patent US10533006B2, “Nitrogen-containing heterocycle and carbocycle derivatives having TrkA inhibitory activity” (Shionogi & Co., Ltd., priority 2016, dated 2020)
# Biological target: T1, human TrkA (Homo sapiens, UniProt P04629)
# T1 construct: purchased Lifetechnologies PV3144
# Experiment: Human TrkA inhibition assay
# Format: biochemical
# Details: human TrkA phosphorylation inhibition, ATP 500 μmol/L; read-out: IC50_nM
# Experimental: Seven point five L per well of human TrkA (PV3144, Lifetechnologies, final concentration: 1 nmol/L) suspended in the assay buffer (100 mmol/L 4-(2-hydroxyethyl)-1-piperazineethanesulfonic acid (HEPES), 10 mmol/L magnesium chloride, 0.003 vol % Brij-35, 0.004 vol % Tween20 and 1 mmol/L dithiothreitol (DTT)) was applied in a 384 well plate and the plate was pre-incubated for 15 min at room temperature with 0.4 μL of each compound (final concentration: 200 μmol/L-0.1 nM) dissolved in DMSO. Then, fluorescent substrate (FL-peptide 27, 760424, PerkinElmer, final concentration: 1.5 μmol/L) and ATP (final concentration 500 μmol/L) dissolved in the assay buffer was added in each well. After the incubation of 120 min at 37° C., fifteen μL of termination buffer (100 mmol/L HEPES, 40 mmol/L ethylenediaminetetraacetic acid (EDTA), 10 mmol/L magnesium chloride, 0.003 vol % Brij-35, 0.004 vol % Tween20, 1 mmol/L DTT and 0.16 vol % Coating Reagent 3) was added in each well to stop the enzyme reaction. Fluorescent intensities (FI) of phosphorylated and non-phosphorylated fluorescent substrates were measured by LabChip EZReader II (Caliper LifeSciences, Inc.), and conversion ratio (CR) was calculated by the following formula-1. The CR in the well applied with DMSO alone was used as a negative control and the CR in the well without applying TrkA was used as a positive control. The inhibitory effect of each compound on TrkA phosphorylation was calculated by the following formula-2. CR (%)=(FI of phosphorylated substrate/(FI of phosphorylated substrate+FI of non-phosphorylated substrate))×100 (Formula-1) Phosphorylation inhibition (%)=(1−(CR with compound treatment−CR of positive control)/(CR of negative control−CR of positive control))×100 (Formula-2)
# IC50 values (nmol/L) were determined by the logistic regression using the inhibition data in 10 points of 3-fold dilution series at a compound concentration range of 2 μmol/L to 0.1 nmol/L, or 15 points of 3-fold dilution series at the range of 200 μmol/L to 0.04 nmol/L.
# T1 sequence (P04629 33-796): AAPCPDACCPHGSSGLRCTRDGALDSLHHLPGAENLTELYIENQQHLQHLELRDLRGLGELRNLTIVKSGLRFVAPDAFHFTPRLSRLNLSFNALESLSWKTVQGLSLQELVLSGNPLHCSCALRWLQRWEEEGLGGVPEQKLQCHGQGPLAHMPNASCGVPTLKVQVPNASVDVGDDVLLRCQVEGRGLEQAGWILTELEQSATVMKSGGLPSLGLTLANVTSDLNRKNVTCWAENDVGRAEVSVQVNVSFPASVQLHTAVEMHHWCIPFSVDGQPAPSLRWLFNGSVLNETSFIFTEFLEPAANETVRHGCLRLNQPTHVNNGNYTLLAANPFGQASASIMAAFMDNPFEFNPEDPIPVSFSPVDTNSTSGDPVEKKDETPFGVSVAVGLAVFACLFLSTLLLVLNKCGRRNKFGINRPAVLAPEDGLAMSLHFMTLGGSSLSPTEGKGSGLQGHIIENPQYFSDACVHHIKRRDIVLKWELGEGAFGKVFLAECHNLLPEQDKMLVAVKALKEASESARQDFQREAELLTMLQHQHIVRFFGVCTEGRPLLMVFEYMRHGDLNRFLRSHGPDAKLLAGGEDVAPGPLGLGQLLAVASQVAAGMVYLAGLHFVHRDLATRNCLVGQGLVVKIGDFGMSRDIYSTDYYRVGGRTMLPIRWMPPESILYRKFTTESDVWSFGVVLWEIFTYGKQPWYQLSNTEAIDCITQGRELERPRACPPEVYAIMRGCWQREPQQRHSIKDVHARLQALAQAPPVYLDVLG
row,SMILES,IC50
1,COCCN1C[C@@H](NC(=O)Nc2c(C)c(-c3cnn(C)c3)nn2-c2ccccc2)[C@H](c2cnc(Cl)c(F)c2)C1 (racemic) [Compound I-16],< 0.1 µM
2,CCNC(=O)c1cc(-c2nn(-c3ccccc3)c(NC(=O)N[C@@H]3CN(CCOC)C[C@H]3c3ccccc3)c2C)cnc1OCC(F)F (racemic) [Compound I-131],< 0.1 µM
3,COCCN1C[C@@H](NC(=O)Nc2c(C)c(-c3cnn(C)c3)nn2-c2ccccc2)[C@H](c2cnc(F)c(Cl)c2)C1 (racemic) [Compound I-19],< 0.1 µM
4,COCCN1C[C@@H](NC(=O)Nc2c(C)c(-c3cc(C(=O)N[C@@H]4CCCOC4)c(=O)n(C)c3)nn2-c2ccccc2)[C@H](c2ccccc2)C1 (racemic) [Compound I-109],< 0.1 µM
5,COCC[C@@H]1C[C@@H](NC(=O)Nc2c(C)c(-c3ccc(OC)nc3)nn2-c2ccccc2)[C@H](c2ccnc(F)c2)N1C [Compound I-175],< 0.1 µM
6,COCCN1C[C@@H](NC(=O)Nc2c(C)c(-c3cnn(C)c3)nn2-c2ccccc2)[C@H](c2cc(F)nc(Cl)c2)C1 (racemic) [Compound I-39],< 0.1 µM
7,COCC[C@@H]1C[C@@H](NC(=O)Nc2c(C)c(-c3cc(C(=O)O)c(=O)n(C)c3)nn2-c2ccccc2)[C@H](c2ccccc2)C1 [Compound I-149],< 0.1 µM
8,COCC[C@@H]1C[C@@H](NC(=O)Nc2c(C)c(-c3ccc4c(cnn4C)c3)nn2-c2ccccc2)[C@H](c2ccc(F)c(F)c2)N1C [Compound I-9],< 0.1 µM
9,COCC[C@@H]1C[C@@H](NC(=O)Nc2c(C)c(-c3cnc4c(cnn4C)c3)nn2-c2ccccc2)[C@H](c2ccnc(F)c2)N1C [Compound I-94],< 0.1 µM
10,CCOC(=O)NC(=O)c1cc(-c2nn(-c3ccccc3)c(NC(=O)N[C@@H]3CN(CCOC)C[C@H]3c3ccccc3)c2C)cnc1OC (racemic) [Compound I-157],< 0.1 µM
11,COCCN1C[C@@H](NC(=O)Nc2c(C)c(-c3cnn(C)c3)nn2-c2ccccc2)[C@H](c2cnc(Cl)s2)C1 (racemic) [Compound I-62],< 0.1 µM
12,COCCN1C[C@@H](NC(=O)Nc2c(C)c(-c3cnc4nc(C)nn4c3)nn2-c2ccccc2)[C@H](c2ccccc2)C1 (racemic) [Compound I-32],< 0.1 µM
13,COCCN1C[C@@H](NC(=O)Nc2c(C)c(-c3ccc4c(cnn4C)c3)nn2-c2ccccc2)[C@H](c2cnc(F)c(F)c2)C1 (racemic) [Compound I-26],< 0.1 µM
14,COCCN1C[C@@H](NC(=O)Nc2c(C)c(-c3cnc(OC)c(C(=O)N[C@@H]4CCCOC4)c3)nn2-c2ccccc2)[C@H](c2ccccc2)C1 [Compound I-78],< 0.1 µM
15,COCCN1C[C@@H](NC(=O)Nc2c(C)c(-c3ccnc(C(=O)NOC)c3)nn2-c2ccccc2)[C@H](c2ccc(F)c(F)c2)C1 [Compound I-156],< 0.1 µM
16,COCCN1C[C@@H](NC(=O)Nc2c(C)c(-c3cnc4cnn(C)c4c3)nn2-c2ccccc2)[C@H](c2ccccc2)C1 (racemic) [Compound I-28],< 0.1 µM
17,COCCN1C[C@@H](NC(=O)Nc2c(C)c(-c3cc(C(=O)N[C@H]4CCOC4)c(=O)n(C)c3)nn2-c2ccccc2)[C@H](c2ccccc2)C1 (racemic) [Compound I-111],< 0.1 µM
18,COCC[C@@H]1C[C@@H](NC(=O)Nc2c(C)c(-c3cc(C(=O)NOCc4ccccc4)c(=O)n(C)c3)nn2-c2ccccc2)[C@H](c2ccccc2)C1 [Compound I-119],< 0.1 µM
19,COCCN1C[C@@H](NC(=O)Nc2c(C)c(-c3cnc(OC)c(C(=O)NC4CC(F)(F)C4)c3)nn2-c2ccccc2)[C@H](c2ccccc2)C1 (racemic) [Compound I-81],< 0.1 µM
20,COCCN1C[C@@H](NC(=O)Nc2c(C)c(-c3cnc(OC)c(C(=O)N[C@@H]4CCOC4)c3)nn2-c2ccccc2)[C@H](c2ccccc2)C1 [Compound I-84],< 0.1 µM
21,COCC[C@@H]1C[C@@H](NC(=O)Nc2c(C)c(-c3ccc4c(cnn4C)c3)nn2-c2ccccc2)[C@H](c2ccc(F)c(F)c2)C1 [Compound I-13],< 0.1 µM
22,COCCN1C[C@@H](NC(=O)Nc2c(C)c(-c3cc(C(=O)NC[C@@H](C)O)c(=O)n(C)c3)nn2-c2ccccc2)[C@H](c2ccccc2)C1 (racemic) [Compound I-114],< 0.1 µM

row,SMILES,IC50
1,COCCN1C[C@@H](NC(=O)Nc2c(C)c(-c3cnc4c(c3)c(=O)n(C)n4C)nn2-c2ccccc2)[C@H](c2ccccc2)C1 (racemic) [Compound I-99],< 0.1 µM
2,COCCN1C[C@@H](NC(=O)Nc2c(C)c(-c3cnc4c(cnn4C)c3)nn2-c2ccccc2)[C@H](c2ccccc2)C1 (racemic) [Compound I-17],< 0.1 µM
3,COCC[C@@H]1C[C@@H](NC(=O)Nc2c(C)c(-c3cc(C(=O)NC4CCOCC4)c(=O)n(C)c3)nn2-c2ccccc2)[C@H](c2ccccc2)C1 [Compound I-118],< 0.1 µM
4,COCCN1C[C@@H](NC(=O)Nc2c(C)c(-c3cnc(C)nc3)nn2-c2ccccc2)[C@H](c2cnc(F)c(F)c2)C1 (racemic) [Compound I-60],< 0.1 µM
5,COCCN1C[C@@H](NC(=O)Nc2c(C)c(-c3cnc(OC)c(C(N)=O)c3)nn2-c2ccccc2)[C@H](c2ccccc2)C1 (racemic) [Compound I-161],< 0.1 µM
6,COCCN1C[C@@H](NC(=O)Nc2c(C)c(-c3cnc(OC)c(C(=O)NC4CS(=O)(=O)C4)c3)nn2-c2ccccc2)[C@H](c2ccccc2)C1 (racemic) [Compound I-101],< 0.1 µM
7,CCOc1ncc(-c2nn(-c3ccccc3)c(NC(=O)N[C@@H]3CN(CCOC)C[C@H]3c3ccccc3)c2C)cc1C(=O)NC1CCOCC1 (racemic) [Compound I-140],< 0.1 µM
8,CNC(=O)c1cc(-c2nn(-c3ccccc3)c(NC(=O)N[C@@H]3C[C@@H](CCOC)C[C@H]3c3ccccc3)c2C)cn(C)c1=O [Compound I-117],< 0.1 µM
9,COCC[C@@H]1C[C@@H](NC(=O)Nc2c(C)c(-c3ccc(OCc4ccccc4)nc3)nn2-c2ccccc2)[C@H](c2ccccc2)C1 [Compound I-22],< 0.1 µM
10,COCCN1C[C@@H](NC(=O)Nc2c(C)c(-c3ccnc(C(=O)N[C@H]4CCOC4)c3)nn2-c2ccccc2)[C@H](c2ccccc2)C1 [Compound I-87],< 0.1 µM
11,COCC[C@@H]1C[C@@H](NC(=O)Nc2c(C)c(-c3ccc(O)nc3)nn2-c2ccccc2)[C@H](c2ccc(F)c(F)c2)N1C [Compound I-14],< 0.1 µM
12,COCCN1C[C@@H](NC(=O)Nc2c(C)c(-c3cnc4c(c3)nc(CO)n4C)nn2-c2ccccc2)[C@H](c2ccccc2)C1 (racemic) [Compound I-97],< 0.1 µM
13,COCCN1C[C@@H](NC(=O)Nc2c(C)c(-c3cnc(N=S(C)(C)=O)c(C)c3)nn2-c2ccccc2)[C@H](c2ccccc2)C1 (racemic) [Compound I-121],< 0.1 µM
14,CCNC(=O)c1cc(-c2nn(-c3ccccc3)c(NC(=O)N[C@@H]3CN(CCOC)C[C@H]3c3ccccc3)c2C)ccn1 (racemic) [Compound I-46],< 0.1 µM
15,COCC[C@@H]1C[C@@H](NC(=O)Nc2c3c(nn2-c2ccccc2)CCC3)[C@H](c2ccnc(F)c2)N1C [Compound I-177],< 0.1 µM
16,COCCN1C[C@@H](NC(=O)Nc2c(C)c(-c3cc(C(=O)NC4CCOCC4)c(=O)n(CCOC)c3)nn2-c2ccccc2)[C@H](c2ccccc2)C1 (racemic) [Compound I-136],< 0.1 µM
17,COCC[C@@H]1C[C@@H](NC(=O)Nc2c(C)c(C)nn2-c2ccccc2)[C@H](c2ccnc(F)c2)N1C [Compound I-178],< 0.1 µM
18,COCCN1C[C@@H](NC(=O)Nc2c(C)c(-c3ccc4c(cnn4C)c3)nn2-c2ccccc2)[C@H](c2ccccc2)C1 (racemic) [Compound I-3],< 0.1 µM
19,COCCN1C[C@@H](NC(=O)Nc2c(C)c(-c3cnc4c(c3)ncn4C)nn2-c2ccccc2)[C@H](c2ccccc2)C1 (racemic) [Compound I-51],< 0.1 µM
20,COCC[C@@H]1C[C@@H](NC(=O)Nc2c(C)c(-c3ccc4c(cnn4C)c3)nn2-c2ccccc2)[C@H](c2ccccc2)C1 [Compound I-21],< 0.1 µM
21,CNC(=O)c1cc(-c2nn(-c3ccccc3)c(NC(=O)N[C@@H]3CN(CCOC)C[C@H]3c3ccccc3)c2C)cn(C)c1=O (racemic) [Compound I-52],< 0.1 µM

# Same assay, conditions: human TrkA phosphorylation inhibition, ATP 500 μmol/L; read-out: IC50 value
row,SMILES,IC50
1,COCC[C@@H]1C[C@@H](NC(=O)Nc2c(C)c(-c3cnc4c(cnn4C)c3)nn2-c2ccccc2)[C@H](c2ccccc2)C1 [Compound I-102],0.00066 µM
2,COCC[C@@H]1C[C@@H](NC(=O)Nc2c(C)c(-c3cnc4c(cnn4C)c3)nn2-c2ccccc2)[C@H](c2ccc(F)c(F)c2)N1C [Compound I-172],0.00094 µM
3,CCN1CCC(NC(=O)c2ccc(-c3nn(-c4ccccc4)c(NC(=O)N[C@@H]4C[C@@H](CCOC)C[C@H]4c4ccccc4)c3C)cc2)CC1 [Compound I-24],0.00081 µM
4,COCCN1C[C@@H](NC(=O)Nc2c(C)c(-c3cnc4c(cnn4C)c3)nn2-c2ccccc2)[C@H](c2ccnc(F)c2)C1 (racemic) [Compound I-90],0.0022 µM
